From ChEMBL document CHEMBL4742400, “Protein kinase mkk4 inhibitors for promoting liver regeneration or reducing or preventing hepatocyte death” (2019)

Tests used:
[1] = species: Homo sapiens; assay: (§1) Selectivity index, ratio of inhibition of full length human JNK1 (M1 to Q384 residues) expressed in mammalian expression system assessed as residual percent of control binding at 100 nM relative to control to inhibition of partial length human MKK4 (S84 to D399 residues) expressed in mammalian expression system assessed as residual percent of control binding at 100 nM relative to control
[2] = species: Homo sapiens; assay: as §1, with “MKK7” for “JNK1”, “R419” for “Q384”
[3] = species: Homo sapiens; assay: Selectivity index, ratio of inhibition of B-raf (unknown origin) to inhibition of partial length human MKK4 (S84 to D399 residues) expressed in mammalian expression system assessed as residual percent of control binding at 100 nM relative to control

SMILES | Selectivity ratio [1] | Selectivity ratio [2] | Selectivity ratio [3]
CCCS(=O)(=O)Nc1ccc(F)c(C(=O)c2n[nH]c3ncc(-c4ccc(S(=O)(=O)NC(C)=O)cc4)cc23)c1F | > 30 | > 30 | < 3
CCCS(=O)(=O)Nc1c(F)ccc(C(=O)c2n[nH]c3ncc(-c4ccc(C(=O)O)cc4)cc23)c1F | > 30 | > 30 | > 30
CCCS(=O)(=O)Nc1ccc(F)c(C(=O)c2n[nH]c3ncc(-c4ccccc4F)cc23)c1F | > 30 | > 30 | 10
CCCS(=O)(=O)Nc1ccc(F)c(C(=O)c2n[nH]c3ncc(-c4ccc(S(C)(=O)=O)cc4)cc23)c1F | > 30 | > 30 | < 3
CCCS(=O)(=O)Nc1ccc(F)c(C(=O)c2n[nH]c3ncc(-c4ccc(C(N)=O)cc4)cc23)c1F | > 30 | > 30 | 3
CCCS(=O)(=O)Nc1ccc(F)c(C(=O)c2n[nH]c3ncc(-c4ccc(C(C)(C)C)cc4)cc23)c1F | < 3 | < 3 | < 3
CCCS(=O)(=O)Nc1ccc(F)c(C(=O)c2n[nH]c3ncc(-c4ccc(C(=O)NCC(O)CO)cc4)cc23)c1F (stereo unspecified) | > 30 | > 30 | < 3
CCCS(=O)(=O)Nc1ccc(F)c(C(=O)c2n[nH]c3ncc(-c4ccccc4O)cc23)c1F | 3 | 10 | 3
CCCCS(=O)(=O)Nc1cccc(C(=O)c2n[nH]c3ncc(-c4ccc5c(c4)OCCO5)cc23)c1F | < 3 | 3 | 3
O=C(c1ccc(F)c(NS(=O)(=O)Cc2ccccc2)c1F)c1n[nH]c2ncc(-c3ccncc3)cc12 | > 30 | > 30 | > 30
CCCS(=O)(=O)Nc1ccc(F)c(C(=O)c2n[nH]c3ncc(-c4ccc(S(=O)(=O)NCC(O)CO)cc4)cc23)c1F (stereo unspecified) | > 30 | > 30 | < 3
CCCS(=O)(=O)Nc1ccc(F)c(C(=O)c2n[nH]c3ncc(-c4ccc(S(N)(=O)=O)cc4)cc23)c1F | > 30 | > 30 | 3
CCCS(=O)(=O)Nc1ccc(F)c(C(=O)c2n[nH]c3ncc(-c4ccc(-c5nnn[nH]5)cc4)cc23)c1F | > 30 | > 30 | 3
CCCS(=O)(=O)Nc1ccc(F)c(C(=O)c2n[nH]c3ncc(-c4ccc(N(C)C)cc4)cc23)c1F | > 30 | > 30 | < 3
CCCS(=O)(=O)Nc1ccc(F)c(C(=O)c2n[nH]c3ncc(-c4ccccc4)cc23)c1F | 10 | > 30 | 10
CCCS(=O)(=O)Nc1ccc(F)c([S+]([O-])c2n[nH]c3ncc(-c4ccc(Cl)cc4)cc23)c1F (stereo unspecified) | < 3 | < 3 | < 3
CCCS(=O)(=O)Nc1ccc(F)c(C(=O)c2n[nH]c3ncc(-c4ccccc4OC)cc23)c1F | 10 | > 30 | > 30
CCCS(=O)(=O)Nc1ccc(F)c(C(=O)c2n[nH]c3ncc(-c4ccccc4C)cc23)c1F | 10 | 10 | 3
CCCS(=O)(=O)Nc1ccc(F)c(S(=O)(=O)c2n[nH]c3ncc(-c4ccc(Cl)cc4)cc23)c1F | < 3 | < 3 | < 3
CCCS(=O)(=O)Nc1ccc(F)c(Cc2n[nH]c3ncc(-c4ccc(Cl)cc4)cc23)c1F | < 3 | < 3 | < 3
CCCS(=O)(=O)Nc1ccc(F)c(C(=O)c2n[nH]c3ncc(-c4ccccc4N)cc23)c1F | 3 | 3 | 3
CCCS(=O)(=O)Nc1ccc(F)c(NC(=O)c2n[nH]c3ncc(-c4ccc(Cl)cc4)cc23)c1F | < 3 | < 3 | < 3
CCCS(=O)(=O)Nc1ccc(F)c(Sc2n[nH]c3ncc(-c4ccc(Cl)cc4)cc23)c1F | < 3 | < 3 | < 3

The next lines start with the values.

Selectivity ratio [1] | Selectivity ratio [2] | Selectivity ratio [3] | SMILES
3 | > 30 | 3 | CCCS(=O)(=O)Nc1ccc(F)c(C(=O)c2n[nH]c3ncc(-c4cccc(O)c4)cc23)c1F
3 | 3 | < 3 | CCCS(=O)(=O)Nc1ccc(F)c(C(=O)c2n[nH]c3ncc(-c4cccc(C)c4)cc23)c1F
3 | 3 | 3 | CCCS(=O)(=O)Nc1ccc(F)c(C(=O)c2n[nH]c3ncc(-c4ccc(C(C)C)cc4)cc23)c1F
< 3 | < 3 | < 3 | CCCS(=O)(=O)Nc1ccc(F)c(C(=O)c2n[nH]c3ncc(-c4cccc(C(F)(F)F)c4)cc23)c1F
> 30 | > 30 | 10 | CCCS(=O)(=O)Nc1ccc(F)c(C(=O)c2n[nH]c3ncc(-c4ccc(F)cc4)cc23)c1F
> 30 | > 30 | 10 | CCCS(=O)(=O)Nc1ccc(F)c(C(=O)c2n[nH]c3ncc(-c4ccc(N)cc4)cc23)c1F
10 | 10 | 3 | CCCS(=O)(=O)Nc1ccc(F)c(C(=O)c2n[nH]c3ncc(-c4cccc(OC)c4)cc23)c1F
< 3 | < 3 | < 3 | CCCS(=O)(=O)Nc1ccc(F)c(C(=O)c2n[nH]c3ncc(-c4cccc(Cl)c4)cc23)c1F
3 | 3 | < 3 | CCCS(=O)(=O)Nc1ccc(F)c(C(=O)c2n[nH]c3ncc(-c4cccc(N(C)C)c4)cc23)c1F
> 30 | 3 | < 3 | CCCS(=O)(=O)Nc1ccc(F)c(C(=O)c2n[nH]c3ncc(-c4ccc(Cl)c(C(F)(F)F)c4)cc23)c1F
3 | 3 | < 3 | CCCS(=O)(=O)Nc1ccc(F)c(C(=O)c2n[nH]c3ncc(-c4ccc(C)c(C)c4)cc23)c1F
3 | 3 | < 3 | CCCS(=O)(=O)Nc1ccc(F)c(C(=O)c2n[nH]c3ncc(-c4ccc(C(F)(F)F)cc4)cc23)c1F
3 | 3 | < 3 | CCCS(=O)(=O)Nc1ccc(F)c(C(=O)c2n[nH]c3ncc(-c4cccc([N+](=O)[O-])c4)cc23)c1F
10 | 10 | 3 | CCCS(=O)(=O)Nc1ccc(F)c(C(=O)c2n[nH]c3ncc(-c4ccc([N+](=O)[O-])cc4)cc23)c1F
> 30 | > 30 | 10 | CCCS(=O)(=O)Nc1ccc(F)c(C(=O)c2n[nH]c3ncc(-c4ccc(C(=O)O)cc4)cc23)c1F
3 | 3 | 3 | CCCS(=O)(=O)Nc1ccc(F)c(C(=O)c2n[nH]c3ncc(-c4ccc(Cl)cc4Cl)cc23)c1F
10 | 10 | < 3 | CCCS(=O)(=O)Nc1ccc(F)c(C(=O)c2n[nH]c3ncc(-c4ccc(OC)cc4)cc23)c1F
10 | < 3 | < 3 | CCCS(=O)(=O)Nc1ccc(F)c(C(=O)c2n[nH]c3ncc(-c4ccc(Cl)c(Cl)c4)cc23)c1F
10 | 10 | < 3 | CCCS(=O)(=O)Nc1ccc(F)c(C(=O)c2n[nH]c3ncc(-c4cccc(F)c4)cc23)c1F
10 | 10 | 3 | CCCS(=O)(=O)Nc1ccc(F)c(C(=O)c2n[nH]c3ncc(-c4ccccc4Cl)cc23)c1F
> 30 | > 30 | < 3 | CCCS(=O)(=O)Nc1ccc(F)c(C(=O)c2n[nH]c3ncc(-c4cccc(N)c4)cc23)c1F
> 30 | > 30 | 10 | CCCS(=O)(=O)Nc1ccc(F)c(C(=O)c2n[nH]c3ncc(-c4ccc(O)cc4)cc23)c1F
< 3 | < 3 | < 3 | CCCS(=O)(=O)Nc1ccc(F)c(C(=O)c2n[nH]c3ncc(-c4cc(Cl)cc(Cl)c4)cc23)c1F
10 | 10 | < 3 | CCCS(=O)(=O)Nc1ccc(F)c(C(=O)c2n[nH]c3ncc(-c4ccc(C)cc4)cc23)c1F
